Data reported in PMC9938201, “Neuroprotective and antioxidant properties of new quinolylnitrones in in vitro and in vivo cerebral ischemia models” (Scientific Reports, 2023).

Biological target: T1, soybean lipoxygenase (LOX) (Glycine max, UniProt P08170)
T1 construct: gene LOX1.1
T1 sequence (P08170 1-839): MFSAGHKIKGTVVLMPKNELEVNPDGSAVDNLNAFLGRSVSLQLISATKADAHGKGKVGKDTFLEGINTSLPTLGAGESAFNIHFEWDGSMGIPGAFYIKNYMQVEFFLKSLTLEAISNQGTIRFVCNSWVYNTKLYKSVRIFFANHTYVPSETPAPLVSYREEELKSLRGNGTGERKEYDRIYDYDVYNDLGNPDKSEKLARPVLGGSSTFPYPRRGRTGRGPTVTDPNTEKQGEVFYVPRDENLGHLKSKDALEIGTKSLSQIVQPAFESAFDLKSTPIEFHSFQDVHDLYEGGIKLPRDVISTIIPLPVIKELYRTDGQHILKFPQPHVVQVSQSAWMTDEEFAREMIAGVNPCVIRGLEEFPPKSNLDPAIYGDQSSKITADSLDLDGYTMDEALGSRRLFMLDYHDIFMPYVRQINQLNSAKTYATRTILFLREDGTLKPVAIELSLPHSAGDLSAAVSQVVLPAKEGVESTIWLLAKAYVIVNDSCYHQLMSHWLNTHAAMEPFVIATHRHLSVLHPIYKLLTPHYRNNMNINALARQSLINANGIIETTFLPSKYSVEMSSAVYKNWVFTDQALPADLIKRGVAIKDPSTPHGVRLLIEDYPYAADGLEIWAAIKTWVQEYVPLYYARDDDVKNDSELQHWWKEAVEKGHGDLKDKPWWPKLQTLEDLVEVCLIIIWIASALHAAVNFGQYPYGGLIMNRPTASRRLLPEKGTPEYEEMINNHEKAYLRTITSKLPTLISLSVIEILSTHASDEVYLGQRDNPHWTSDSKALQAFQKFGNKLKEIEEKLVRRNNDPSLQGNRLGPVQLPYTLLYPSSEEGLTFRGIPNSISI
Assay: UV absorbance at […] nm, sodium linoleate oxidation by soybean LOX, pH […]
Format: biochemical

In the case of CC(C)(C)/[N+]([O-])=C/c1ccc2cccc(O)c2n1 [QN5], the IC50 is reported as 5 µM.
